{"source": "patent US6617337B1", "about": "“Use of nitroxides for the treatment of essential hypertension” (Georgetown University, priority 1997, dated 2003)", "assay_type_in_all_cases": "in vivo, rat", "key": {"SHR and WKY rats [1]": {"tested_on": "SHR and WKY rats", "assay": "MAP during constant intravenous infusion of Tempol in anesthetized rats (dose-response)", "conditions": "Tempol 1,800 μmol·kg^−1·h^−1 i.v. infusion, 30 minutes"}, "SHR and WKY rats [2]": {"tested_on": "SHR and WKY rats", "assay": "MAP and renal hemodynamics during bolus intravenous injection of Tempol in anesthetized rats", "conditions": "for Decrease in MAP: Tempol 72 μmol/kg IV; for RBF during Tempol: dose not specified (24 and 72 μmol/kg studied)", "method": "In the first group, the short-term actions of Tempol were determined in anesthetized rats. […] The following data was obtained:\nMaterials and Methods. In Examples 3 to 6, groups of male SHR and WKY rats (200 to 300 g) were maintained on tap water and standard chow (Harlan-Teklad Inc.). […] In order to do this experiment, WKY (n=6) and SHR (n=6) were anesthetized with thiobutabarbital (100 mg/kg i.p., Inactin, Research Biochemicals International) and maintained at 37° C. on a servocontrolled heated rodent operating table. A tracheostomy was performed with polyethylene PE-240 tubing, and the left jugular vein and carotid artery were cannulated with PE-50 tubing. Intravenous infusion of 1% albumin dissolved in 0.154 M NaCl solution was infused at 2 mL/h i.v. to maintain an euvolemic state. A midline incision was made, and the left renal artery was isolated. A blood-flow probe was placed around the renal artery and connected to a transit-time blood flowmeter (1RB, Transonic Systems Inc.). We have previously shown that this method of measuring real-time changes in RBF is valid in the rat (Welch et al., 1995 Am. J. Physiol. 37: F175-F178).\nMAP was continuously recorded from the carotid artery using a Statham pressure transducer (model P23, Gould Instruments) and MACLab data acquisition program. After 60 minutes of equilibration, there was a basal period for measurement of MAP and RBF over 30 minutes."}, "SHR and WKY rats [3]": {"tested_on": "SHR and WKY rats", "assay": "Two weeks of oral Tempol in the drinking water: MAP, HR, renal hemodynamics, excretion, 8-ISO", "conditions": "Tempol 1 mM in drinking water", "method": "Thereafter, WKY and SHR were anesthetized with thiobutabarbital (100 mg/kg, i.p., Inactin, Research Biochemicals International) and maintained at 37° C. on a servo-controlled heated rodent operating table. A tracheostomy was performed with polyethylene PE-240 tubing and the left jugular vein and carotid artery were cannulated with PE-50 tubing. A 1% albumin solution in 0.154 M NaCl was infused at 2 ml/h, i.v. to maintain a euvolemic state. A midline incision was made and the left renal artery was isolated. A blood flow probe was placed around the renal artery and connected to a transit-time blood flowmeter (IRB, Transonic Systems, Inc.). We have previously shown that this method of measuring real-time changes in renal blood flow (RBF) is valid in the rat. Mean arterial pressure (MAP) and heart rate (HR) were continuously recorded from the carotid artery using a Statham pressure transducer (model P23, Gould Instruments) and MACLab data acquisition software. Glomerular filtration rate (GFR) was determined from the clearance of [^3H]-inulin. Following surgery and a 60 min equilibration period, MAP, HR, GFR, and RBF were measured over 30 minutes and the data was averaged."}, "[4]": {"conditions": "SHR, Tempol 4 mg/kg intravenously"}, "[5]": {"conditions": "WKY, Tempol 4 mg/kg intravenously"}}, "note": "Several values for one entry are separate records, joined by “and”; a condition that tells them apart may be missing. Equal entries are not always repeated.", "data": [{"smiles": "CC1(C)CC(O)CC(C)(C)N1[O]", "note": "[Tempol, 4-hydroxy-2,2,6,6-tetramethyl-1-piperidinyloxy]", "values": [{"measurement": "MAP", "setting": "SHR and WKY rats [1]; SHR", "value": "72±10", "unit": "mm Hg"}, {"measurement": "MAP", "setting": "SHR and WKY rats [1]; WKY", "value": "71±3", "unit": "mm Hg"}, {"measurement": "MAP", "setting": "SHR and WKY rats [2]; SHR, Tempol 24 μmol/kg IV bolus", "value": "147±4", "unit": "mm Hg"}, {"measurement": "RVR", "setting": "SHR and WKY rats [2]; SHR, Tempol 72 μmol/kg", "value": "17±2", "unit": "mm Hg·mL^−1·min^−1"}, {"measurement": "MAP", "setting": "SHR and WKY rats [2]; SHR, Tempol 72 μmol/kg IV bolus", "value": "104±9", "unit": "mm Hg"}, {"measurement": "Decrease in MAP", "setting": "SHR and WKY rats [2]; SHR, P<0.05", "value": 28, "unit": "%"}, {"measurement": "Decrease in RVR", "setting": "SHR and WKY rats [2]; SHR, Tempol 72 μmol/kg, P<0.05", "value": 29, "unit": "%"}, {"measurement": "MAP", "setting": "SHR and WKY rats [2]; [4]", "value": "108±8", "unit": "mm Hg"}, {"measurement": "RVR", "setting": "SHR and WKY rats [2]; [4]", "value": "17±2", "unit": "mm Hg/ml/min"}, {"measurement": "MAP", "setting": "SHR and WKY rats [2]; SHR, Tempol 12 mg/kg intravenously", "value": "80±5", "unit": "mm Hg"}, {"measurement": "RBF during Tempol", "setting": "SHR and WKY rats [2]; SHR", "value": "6.7 ± 0.8", "unit": "mL/min"}, {"measurement": "RVR", "setting": "SHR and WKY rats [2]; SHR, low-dose Tempol (24 μmol/kg)", "value": "24±3", "unit": "mm Hg·mL^−1·min^−1"}, {"measurement": "MAP", "setting": "SHR and WKY rats [2]; WKY, Tempol 24 μmol/kg IV bolus", "value": "114±5", "unit": "mm Hg"}, {"measurement": "RVR", "setting": "SHR and WKY rats [2]; WKY, Tempol 72 μmol/kg", "value": "15±1", "unit": "mm Hg·mL^−1·min^−1"}, {"measurement": "MAP", "setting": "SHR and WKY rats [2]; WKY, Tempol 72 μmol/kg IV bolus", "value": "96±6", "unit": "mm Hg"}, {"measurement": "Decrease in MAP", "setting": "SHR and WKY rats [2]; WKY, P<0.05", "value": 11, "unit": "%"}, {"measurement": "MAP", "setting": "SHR and WKY rats [2]; [5]", "value": "98±6", "unit": "mm Hg"}, {"measurement": "RVR", "setting": "SHR and WKY rats [2]; [5]", "value": "15±1", "unit": "mm Hg/ml/min"}, {"measurement": "MAP", "setting": "SHR and WKY rats [2]; WKY, Tempol 12 mg/kg intravenously", "value": "99±7", "unit": "mm Hg"}, {"measurement": "RBF during Tempol", "setting": "SHR and WKY rats [2]; WKY", "value": "6.6 ± 0.7", "unit": "mL/min"}, {"measurement": "RVR", "setting": "SHR and WKY rats [2]; WKY, low-dose Tempol (24 μmol/kg)", "value": "17±1", "unit": "mm Hg·mL^−1·min^−1"}, {"measurement": "RBF", "setting": "SHR and WKY rats [3]; SHR, 2 weeks", "value": "5.6 ± 0.5", "unit": "mL/min"}, {"measurement": "RVR", "setting": "SHR and WKY rats [3]; SHR, 2 weeks", "value": "26.4 ± 2.6", "unit": "mm Hg/ml/min"}, {"measurement": "UNaV", "setting": "SHR and WKY rats [3]; SHR, 2 weeks", "value": "2.1 ± 0.2", "unit": "mmol/24 hr"}, {"measurement": "UV", "setting": "SHR and WKY rats [3]; SHR, 2 weeks", "value": "15.2 ± 1.7", "unit": "ml/24 hr"}, {"measurement": "Decrease in RVR (tendency, not significant)", "setting": "SHR and WKY rats [3]; SHR, two weeks", "value": 16, "unit": "%"}, {"measurement": "GFR", "setting": "SHR and WKY rats [3]; SHR, two weeks", "value": "1.9 ± 0.3 mL/min and 2.0 ± 0.2 mL/min"}, {"measurement": "Heart rate", "setting": "SHR and WKY rats [3]; SHR, two weeks", "value": "414±9", "unit": "bts/min"}, {"measurement": "Increase in GFR", "setting": "SHR and WKY rats [3]; SHR, two weeks", "value": 17, "unit": "%"}, {"measurement": "MAP", "setting": "SHR and WKY rats [3]; SHR, two weeks", "value": "134±6", "unit": "mm Hg"}, {"measurement": "UV8-ISO (8-iso-prostaglandin F2α excretion)", "setting": "SHR and WKY rats [3]; SHR, two weeks", "value": "6.0±0.7", "unit": "ng/24 hr"}, {"measurement": "Decrease in MAP compared to normal SHR", "setting": "SHR and WKY rats [3]; SHR, two weeks, p<0.05", "value": 18, "unit": "%"}, {"measurement": "Decrease in UV8-ISO (8-iso-prostaglandin F2α excretion)", "setting": "SHR and WKY rats [3]; SHR, two weeks, p<0.05", "value": 39, "unit": "%"}, {"measurement": "Body weight gain", "setting": "SHR and WKY rats [3]; 2 weeks, WKY and SHR pooled", "value": "66±3", "unit": "g/14 days"}, {"measurement": "Food intake", "setting": "SHR and WKY rats [3]; 2 weeks, WKY and SHR pooled", "value": "24 ± 1", "unit": "g/day"}, {"measurement": "Water intake", "setting": "SHR and WKY rats [3]; 2 weeks, WKY and SHR pooled, p<0.05 vs control", "value": "43 ± 3", "unit": "mL/day"}, {"measurement": "GFR", "setting": "SHR and WKY rats [3]; WKY, 2 weeks", "value": "2.5 ± 0.4", "unit": "mL/min"}, {"measurement": "RBF", "setting": "SHR and WKY rats [3]; WKY, 2 weeks", "value": "8.8 ± 0.9", "unit": "mL/min"}, {"measurement": "RVR", "setting": "SHR and WKY rats [3]; WKY, 2 weeks", "value": "14.2 ± 1.4", "unit": "mm Hg/ml/min"}, {"measurement": "UNaV", "setting": "SHR and WKY rats [3]; WKY, 2 weeks", "value": "2.4 ± 0.6", "unit": "mmol/24 hr"}, {"measurement": "UV", "setting": "SHR and WKY rats [3]; WKY, 2 weeks", "value": "16.7 ± 2.3", "unit": "ml/24 hr"}, {"measurement": "Heart rate", "setting": "SHR and WKY rats [3]; WKY, two weeks", "value": "373±8", "unit": "bts/min"}, {"measurement": "MAP", "setting": "SHR and WKY rats [3]; WKY, two weeks", "value": "118±7", "unit": "mm Hg"}]}]}
